Results: article PMC12655351, “Synthesis and Anticancer Activity Evaluation of New 5-((5-Nitrofuran-2-yl)allylidene)-2-thioxo-4-thiazolidinones” (Pharmaceuticals, 2025)
Values joined by “and” are separate entries in the source; they are usually repeats but may differ in a detail not shown here. Identical values can stand only once. Like-named read-outs stand apart in the source and are kept apart here.

Assays:
LOX IMVI = details: 48 h; for growth GP: 10 μM
SN12C = details: 48 h
A498 [1] = assay: cells; details: Homo sapiens, A498, 48 h
A498 [2] = tested on: A498
NCI-H460 = assay: NCI-60 SRB screen; details: NCI-H460, 48 h; for CC50: read-out: LC50
NCI-H23 = assay: cells; details: Homo sapiens, NCI-H23, 48 h; for CC50: read-out: LC50, NCI-H23, 48 h
Prostate Cancer = Prostate Cancer subpanel
RPMI-8226 = assay: cells; details: Homo sapiens, RPMI-8226, 48 h
RXF 393 = assay: NCI-60 SRB screen; details: RXF 393, 48 h
NCI-H266 = assay: NCI-60 SRB screen; details: for GI50 / TGI: NCI-H266, 48 h; for CC50: read-out: LC50, NCI-H266, 48 h
HCT-116 = assay: MTT assay; assay type: cell-based; details: Homo sapiens; HCT-116, 24 h of treatment
Description: (§1) The NCI-60 screening protocol utilizes the sulforhodamine B (SRB) assay following 48 h of compound exposure. […] The MTT assay was performed on eleven cancer cell lines: human breast cancer (MDA-MB-231, MCF-7, HCC 1954), human gastric cancer (AGS), human colorectal adenocarcinoma (HT-29, DLD-1, HCT 116), human neuroblastoma (SH SY5Y), and human leukemia (JURKAT, RMPI 8866, K-562) cell lines. The study was conducted in triplicate at the following seven concentrations: 0.62, 1.25, 2.5, 5, 10, 20, and 40 μM.
(§2) The selected cell lines were seeded into 96-well plates and cultured in accordance with the previously described methodology. Then, the cells were treated with all tested compounds and DOX at concentrations of 0.625, 1.25, 2.5, 5.0, 10.0, 20.0, and 40.0 μM for 24 h. A solution of 3-(4,5-dimethyl-2-thiazolyl)-2,5-diphenyl-2H-tetrazolium bromide (Sigma-Aldrich, St. Louis, MO, USA) in phosphate-buffered saline without calcium and magnesium (Corning, Kennebunk, ME, USA) at a concentration of 5 mg/mL was used to carry out MTT assay. After incubation, 20 μL of the prepared MTT solution was added, and then the cells were incubated at 37 °C for two hours. Afterwards, the cells were lysed using 100 μL of lysing buffer (comprising 25 mM HCl, 2% acetic acid, 3% DMF, and 5% SDS, with a pH of 4.7). The absorbance was determined at a wavelength of 570 nm using an Absorbance 96 microplate reader (Byonoy GmbH, Hamburg, Germany).

Jurkat = assay: MTT assay; assay type: cell-based; details: Homo sapiens, 24 h of treatment
Description: as §1, §2

MCF-7 = assay: MTT assay; assay type: cell-based; details: Homo sapiens, MCF7; MCF-7, 24 h of treatment
Description: as §1, §2

HCC-1954 = assay: MTT assay; assay type: cell-based; details: Homo sapiens, HCC1954; HCC-1954, 24 h of treatment
Description: as §1, §2

MDA-MB-231 = assay: MTT assay; assay type: cell-based; details: Homo sapiens; MDA-MB-231, 24 h of treatment
Description: as §1, §2

DLD-1 = assay: MTT assay; assay type: cell-based; details: Homo sapiens; DLD-1, 24 h of treatment
Description: as §1, §2

HT-29 = assay: MTT assay; assay type: cell-based; details: Homo sapiens; HT-29, 24 h of treatment
Description: as §1, §2

AGS = assay: MTT assay; assay type: cell-based; details: Homo sapiens, 24 h of treatment
Description: as §1, §2

K562 = assay: MTT assay; assay type: cell-based; details: Homo sapiens; K562, 24 h of treatment
Description: as §1, §2

RPMI 8866 = assay: MTT assay; assay type: cell-based; details: Homo sapiens; RPMI 8866, 24 h of treatment
Description: as §1, §2

SH SY5Y = assay: MTT assay; assay type: cell-based; details: Homo sapiens, 24 h of treatment
Description: as §1, §2

OVCAR-3 = details: for growth GP: OVCAR-3, 10 μM, 48 h
HS 578T = details: 48 h
SK-OV-3 = assay: cells; details: Homo sapiens, SK-OV-3, 48 h
Breast cancer = Breast cancer subpanel
786-0 = assay: cells; details: Homo sapiens, 786-0, 48 h
U251 = assay: NCI-60 SRB screen; details: for GI50 / TGI: U251, 48 h; for CC50: read-out: LC50, U251, 48 h
SK-MEL-5 = assay: cells; details: Homo sapiens, SK-MEL-5, 48 h; for CC50: read-out: LC50, SK-MEL-5, 48 h
Leukemia = assay: cells; details: Homo sapiens; for GI50: read-out: MG_MID GI50; for CC50: read-out: MG_MID LC50
HT29 = assay: cells; details: Homo sapiens, HT-29, 48 h, HT29, 48 h

O=C(O)CCN1C(=O)/C(=C/C=C/c2ccc([N+](=O)[O-])o2)SC1=S [12b, 3-((Z)-5-((E)-3-(5-Nitrofuran-2-yl)allylidene)-4-oxo-2-thioxothiazolidin-3-yl)propanoic acid]
growth GP (LOX IMVI; LOX IMVI): -95.70% | TGI (LOX IMVI; LOX IMVI): 1860 nM | growth GP (SN12C; SN12C, 10 μM): -95.84% | TGI (SN12C; SN12C): 2320 nM | GI50 (A498 [1]): 14300 nM | TGI (COLO 205; COLO 205, 48 h): 12400 nM | growth GP (A498 [2]; A498, 10 μM, 48 h): -96.94% | TGI (A498 [2]; A498, 48 h): 27400 nM | GI50 (NCI-H460; Homo sapiens): 1330 nM | CC50 (NCI-H460; Homo sapiens): 6460 nM | TGI (NCI-H460): 2930 nM | GI50 (NCI-H23): 1690 nM | CC50 (NCI-H23): 6700 nM | MG_MID TGI (Prostate Cancer): 10600 nM | GI50 (RPMI-8226): 1230 nM | CC50 (RPMI-8226; read-out: LC50): > 100000 nM | GI50 (RXF 393; Homo sapiens): 1580 nM | TGI (RXF 393): 3020 nM | GI50 (NCI-H266; Homo sapiens, 48 h): 2830 nM | CC50 (NCI-H266; Homo sapiens, 48 h): 79700 nM | TGI (NCI-H266): 12500 nM | IC50 (HCT-116): 3680 nM | IC50 (Jurkat): 1770 nM | IC50 (MCF-7): 3010 nM | IC50 (HCC-1954): 4860 nM | IC50 (MDA-MB-231): 12900 nM | IC50 (DLD-1): 3310 nM | IC50 (HT-29): 8560 nM | IC50 (AGS): 3650 nM | IC50 (K562): 7150 nM | IC50 (RPMI 8866): 7780 nM | IC50 (SH SY5Y): 13100 nM | growth GP (OVCAR-3): -96.70% | TGI (OVCAR-3; OVCAR-3, 48 h): 3010 nM | TGI (HS 578T): 7930 nM | GI50 (SK-OV-3): 4700 nM | CC50 (SK-OV-3; read-out: LC50, SK-OV-3, 48 h): 43700 nM | MG_MID TGI (Breast cancer): 3640 nM | GI50 (786-0): 1380 nM | GI50 (U251; Homo sapiens, U-251, 48 h): 1070 nM | CC50 (U251; Homo sapiens, U-251, 48 h): 5530 nM | TGI (U251): 2430 nM | GI50 (SK-MEL-5): 1030 nM | CC50 (SK-MEL-5): 4870 nM | GI50 (Leukemia): 660 nM | CC50 (Leukemia): > 100000 nM

O=C(O)CCCCCN1C(=O)/C(=C/C=C/c2ccc([N+](=O)[O-])o2)SC1=S [14b, 6-((Z)-5-((E)-3-(5-nitrofuran-2-yl)allylidene)-4-oxo-2-thioxothiazolidin-3-yl)hexanoic acid]
growth GP (LOX IMVI; LOX IMVI): -95.58% | GI50 (LOX IMVI; LOX IMVI): 190 nM | TGI (LOX IMVI; LOX IMVI): 420 nM and 390 nM | CC50 (LOX IMVI; human): 780 nM | GI50 (SN12C; SN12C): 260 nM | TGI (SN12C; SN12C): 1360 nM and 860 nM | CC50 (SN12C; human): 3240 nM | GI50 (A498 [1]): 8130 nM | GI50 (COLO 205; COLO 205, 48 h): 970 nM | TGI (COLO 205; COLO 205, 48 h): 3080 nM and 2350 nM | CC50 (COLO 205; human, 48 h): 5610 nM | GI50 (A498 [2]; A498, 48 h): 10200 nM | TGI (A498 [2]; A498, 48 h): 20800 nM and 22800 nM | GI50 (NCI-H460; Homo sapiens): 1000 nM | CC50 (NCI-H460; Homo sapiens): 5540 nM | GI50 (NCI-H460): 630 nM | TGI (NCI-H460): 2360 nM and 2310 nM | GI50 (NCI-H23): 1530 nM | CC50 (NCI-H23): 6290 nM | MG_MID TGI (Prostate Cancer): 3130 nM | GI50 (RPMI-8226): 330 nM | GI50 (NCI-H266; Homo sapiens, 48 h): 2210 nM | CC50 (NCI-H266; Homo sapiens, 48 h): 90200 nM | GI50 (NCI-H266): 1960 nM | TGI (NCI-H266): 7060 nM and 7950 nM | IC50 (HCT-116): 2110 nM | IC50 (Jurkat): 280 nM | IC50 (MCF-7): 850 nM | IC50 (HCC-1954): 3300 nM | IC50 (MDA-MB-231): 6610 nM | IC50 (DLD-1): 1800 nM | IC50 (HT-29): 4520 nM | IC50 (AGS): 2570 nM | IC50 (K562): 1530 nM | IC50 (RPMI 8866): 3130 nM | IC50 (SH SY5Y): 4110 nM | growth GP (OVCAR-3): -95.33% | GI50 (OVCAR-3; OVCAR-3, 48 h): 960 nM | TGI (OVCAR-3; OVCAR-3, 48 h): 2350 nM and 2220 nM | GI50 (HS 578T): 790 nM | TGI (HS 578T): 6440 nM and 7760 nM | GI50 (HT29): 1190 nM | GI50 (SK-OV-3): 1710 nM | MG_MID TGI (Breast cancer): 2610 nM | GI50 (786-0): 610 nM | GI50 (U251; Homo sapiens, U-251, 48 h): 570 nM | CC50 (U251; Homo sapiens, U-251, 48 h): 4860 nM | GI50 (U251): 340 nM | TGI (U251): 1920 nM and 1220 nM | CC50 (SK-MEL-5): 4600 nM | GI50 (Leukemia): 410 nM | CC50 (Leukemia): 64900 nM
